Laboratory results reported in ChEMBL document CHEMBL1201862, “PubChem BioAssay data set” (2004).
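Protocol summary: plate cells (96-well), add compound at 5 concentrations, incubate 48 h, interpolate endpoints linearly. GI50 = concentration required for 50% inhibition of growth.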 The source made the active and inactive calls. No stated cut-off is given here; in the data, active = GI50 up to about 1.1 µM and inactive = higher.

Tests used:
Assay in all cases: growth of human tumour cells (NCI), 48 h
COLO 205 = tested on: COLO 205
EKVX = tested on: EKVX
HCT-15 = tested on: HCT-15
HL-60 = tested on: HL-60
HT-29 = tested on: HT-29
M14 = tested on: M14
Malme-3M = tested on: Malme-3M
OVCAR-8 = tested on: OVCAR-8
RXF 393 = tested on: RXF 393
SF-268 = tested on: SF-268
SF-295 = tested on: SF-295
SK-MEL-28 = tested on: SK-MEL-28
SK-MEL-5 = tested on: SK-MEL-5
SN12C = tested on: SN12C
SNB-19 = tested on: SNB-19
UACC-62 = tested on: UACC-62
MCF7 = tested on: MCF7
MDA-N = tested on: MDA-N
NCI/ADR-RES = tested on: NCI/ADR-RES
MDA-MB-231 = tested on: MDA-MB-231

| Compound | GI50 (COLO 205) | GI50 (EKVX) | GI50 (HCT-15) | GI50 (HL-60) | GI50 (HT-29) | GI50 (M14) | GI50 (Malme-3M) | GI50 (OVCAR-8) | GI50 (RXF 393) | GI50 (SF-268) | GI50 (SF-295) | GI50 (SK-MEL-28) | GI50 (SK-MEL-5) | GI50 (SN12C) | GI50 (SNB-19) | GI50 (UACC-62) | GI50 (MCF7) | GI50 (MDA-N) | GI50 (NCI/ADR-RES) | GI50 (MDA-MB-231) |
| --- | --- | --- | --- | --- | --- | --- | --- | --- | --- | --- | --- | --- | --- | --- | --- | --- | --- | --- | --- | --- |
| CCC[C@H]1O[C@@H]2CC(=O)O[C@@H]2C2=C1C(=O)C=CC2=O | 3.38 µM (inactive) | > 44.1 µM (inactive) | 15.3 µM | 5.7 µM (inactive) | 22 µM (inactive) | 18.7 µM (inactive) | 18.2 µM (inactive) | > 47.4 µM (inactive) | 16 µM (inactive) | 12.9 µM (inactive) | 25.4 µM (inactive) | 17.2 µM (inactive) | 20.1 µM (inactive) | 18.1 µM (inactive) | > 60.4 µM (inactive) | 17.9 µM (inactive) | – | – | – | – |
| CC(=O)C1Cn2c(nc3ccccc32)C[Se]1 (stereo not drawn) | 16.5 µM (inactive) | 15 µM (inactive) | 4.56 µM | 2.47 µM (inactive) | 7.48 µM (inactive) | 2.3 µM (inactive) | 2.47 µM (inactive) | 4.09 µM (inactive) | 2.34 µM (inactive) | 3.85 µM (inactive) | 3.26 µM (inactive) | 2.98 µM (inactive) | 2 µM (inactive) | 4.43 µM (inactive) | 5 µM (inactive) | 1.97 µM (inactive) | – | – | – | – |
| C=C[C@@H]1C(CO)=CCC2[C@H]1CCC1C(C)(C)C(=O)CC[C@]21C (stereo partly drawn) | > 100 µM (inactive) | > 100 µM (inactive) | > 100 µM | 59.3 µM (inactive) | > 100 µM (inactive) | > 100 µM (inactive) | > 100 µM (inactive) | – | > 100 µM (inactive) | > 100 µM (inactive) | > 100 µM (inactive) | > 100 µM (inactive) | > 100 µM (inactive) | > 100 µM (inactive) | > 100 µM (inactive) | > 100 µM (inactive) | > 100 µM (inactive) | > 100 µM (inactive) | > 100 µM (inactive) | – |
| Oc1cn(-c2ccc(Cl)cc2)nc1-c1nnc(Nc2ccccc2)o1 | 21.4 µM (inactive) | 23.9 µM (inactive) | 10.4 µM | – | 9.55 µM (inactive) | 19.6 µM (inactive) | 25.2 µM (inactive) | 20.9 µM (inactive) | 16 µM (inactive) | 14.6 µM (inactive) | 18.9 µM (inactive) | 17.7 µM (inactive) | 11.4 µM (inactive) | 16.1 µM (inactive) | 20.9 µM (inactive) | 16.6 µM (inactive) | 16.9 µM (inactive) | – | 14.9 µM (inactive) | 12.4 µM (inactive) |
| Cn1c2ccccc2n2c(=O)c3cccnc3c(C#N)c12 | 24.7 µM (inactive) | > 100 µM (inactive) | 37.8 µM | – | 63 µM (inactive) | – | > 100 µM (inactive) | 40.3 µM (inactive) | > 100 µM (inactive) | > 100 µM (inactive) | > 100 µM (inactive) | > 100 µM (inactive) | 9.51 µM (inactive) | 25.5 µM (inactive) | – | – | – | > 100 µM (inactive) | 70.3 µM (inactive) | > 100 µM (inactive) |
| Cn1c2ccccc2n2c3ncccc3c(=O)cc12 | 60.4 µM (inactive) | 16.3 µM (inactive) | 31 µM | – | 38.9 µM (inactive) | 64.3 µM (inactive) | 45 µM (inactive) | 46.3 µM (inactive) | 62.8 µM (inactive) | 64.4 µM (inactive) | 45.1 µM (inactive) | > 100 µM (inactive) | 32.9 µM (inactive) | 44.7 µM (inactive) | 35.2 µM (inactive) | – | – | 54.8 µM (inactive) | 50.4 µM (inactive) | 96.8 µM (inactive) |
| O=C1CN2C(c3ccccc3)=NN(c3ccc([N+](=O)[O-])cc3)C2(c2ccccc2)c2cc(Cl)ccc2N1CC1CC1 (stereo not drawn) | > 100 µM (inactive) | > 100 µM (inactive) | > 100 µM | < 0.01 µM (active) | > 100 µM (inactive) | > 100 µM (inactive) | > 100 µM (inactive) | > 100 µM (inactive) | > 100 µM (inactive) | > 100 µM (inactive) | > 100 µM (inactive) | > 100 µM (inactive) | > 100 µM (inactive) | > 100 µM (inactive) | > 100 µM (inactive) | > 100 µM (inactive) | > 100 µM (inactive) | – | > 100 µM (inactive) | > 100 µM (inactive) |
| CC(C)CC(N)C(=O)OCN1C(=O)C2C3C=CC(C2C1=O)C1C2C(=O)N(COC(=O)C(N)CC(C)C)C(=O)C2C31 (stereo not drawn) | > 92.3 µM (inactive) | > 100 µM (inactive) | > 45 µM | 30.4 µM (inactive) | > 100 µM (inactive) | > 100 µM (inactive) | > 100 µM (inactive) | > 100 µM (inactive) | > 100 µM (inactive) | > 100 µM (inactive) | > 100 µM (inactive) | > 100 µM (inactive) | > 100 µM (inactive) | > 100 µM (inactive) | > 100 µM (inactive) | > 100 µM (inactive) | – | – | – | – |
| C/C=C1\CNC1C(=O)O (stereo not drawn) | > 100 µM (inactive) | > 100 µM (inactive) | > 100 µM | > 100 µM (inactive) | > 100 µM (inactive) | – | > 100 µM (inactive) | > 100 µM (inactive) | – | > 100 µM (inactive) | > 100 µM (inactive) | > 100 µM (inactive) | > 100 µM (inactive) | > 100 µM (inactive) | > 100 µM (inactive) | > 100 µM (inactive) | > 100 µM (inactive) | > 100 µM (inactive) | > 100 µM (inactive) | – |
| COc1cccc(N2C(=O)[C@H]3CC(C)c4c([nH]c5ccccc45)[C@H]3C2=O)c1 (stereo partly drawn) | 36.1 µM (inactive) | > 100 µM (inactive) | > 100 µM | > 100 µM (inactive) | 36.1 µM (inactive) | > 100 µM (inactive) | 92.3 µM (inactive) | 50 µM (inactive) | 13.9 µM (inactive) | > 100 µM (inactive) | 23.3 µM (inactive) | 62.4 µM (inactive) | 63.8 µM (inactive) | 78 µM (inactive) | 28.4 µM (inactive) | 39.4 µM (inactive) | – | – | – | – |
| CCOC(=O)c1cc2c(OCc3ccccc3)c(OC)cc3c2c(n1)N(c1ccc(OC)cc1)C(C)C3 (stereo not drawn) | > 50 µM (inactive) | > 50 µM (inactive) | > 50 µM | 45.6 µM (inactive) | – | > 50 µM (inactive) | > 50 µM (inactive) | > 50 µM (inactive) | 33.6 µM (inactive) | > 50 µM (inactive) | > 50 µM (inactive) | > 50 µM (inactive) | > 50 µM (inactive) | > 50 µM (inactive) | > 50 µM (inactive) | 49.3 µM (inactive) | – | – | – | – |
| COc1ccc(C2=NN(c3ccccc3)C(c3cc4cc(Br)ccc4nc3Cl)C2)cc1 (stereo not drawn) | 9.71 µM (inactive) | 11.9 µM (inactive) | 11.6 µM | > 25 µM (inactive) | > 25 µM (inactive) | > 25 µM (inactive) | > 25 µM (inactive) | > 25 µM (inactive) | > 25 µM (inactive) | > 25 µM (inactive) | 9.51 µM (inactive) | > 25 µM (inactive) | > 25 µM (inactive) | > 25 µM (inactive) | > 25 µM (inactive) | – | – | 20.8 µM (inactive) | > 25 µM (inactive) | – |
| O=c1n(CCCN2CCOCC2)nc2n1-c1ccc3ccccc3c1SC2 | 1.43 µM (inactive) | 89.7 µM (inactive) | 27.7 µM | 31.1 µM (inactive) | 19 µM (inactive) | – | – | 64.9 µM (inactive) | 57.7 µM (inactive) | – | 19.9 µM (inactive) | 36.5 µM (inactive) | 29.4 µM (inactive) | 71.9 µM (inactive) | 52.6 µM (inactive) | 21.4 µM (inactive) | 76.7 µM (inactive) | 6.17 µM (inactive) | 67.5 µM (inactive) | – |
| O=C(Cn1c2ccc(Br)cc2c2nc3ccccc3nc21)NCc1ccccc1 | > 100 µM (inactive) | – | > 100 µM | – | > 100 µM (inactive) | 89.9 µM (inactive) | 41.7 µM (inactive) | 23.4 µM (inactive) | 12 µM (inactive) | 38 µM (inactive) | 29 µM (inactive) | > 100 µM (inactive) | > 100 µM (inactive) | > 100 µM (inactive) | 22.3 µM (inactive) | 24.4 µM (inactive) | – | > 100 µM (inactive) | > 100 µM (inactive) | 35.4 µM (inactive) |
| O=C(Cc1ccccc1)NN1C(=O)/C(=C\c2ccc([N+](=O)[O-])cc2)S/C1=N\c1ccccc1 | > 100 µM (inactive) | > 100 µM (inactive) | > 100 µM | – | > 100 µM (inactive) | > 100 µM (inactive) | – | 77.6 µM (inactive) | > 100 µM (inactive) | > 100 µM (inactive) | > 100 µM (inactive) | > 100 µM (inactive) | > 100 µM (inactive) | > 100 µM (inactive) | > 100 µM (inactive) | 61.1 µM (inactive) | 63.2 µM (inactive) | – | > 100 µM (inactive) | > 100 µM (inactive) |
| COC1(c2ccc(Cl)cc2)SC=C(C)n2c1noc2=O (stereo not drawn) | > 100 µM (inactive) | > 100 µM (inactive) | > 100 µM | > 100 µM (inactive) | 33.8 µM (inactive) | > 100 µM (inactive) | > 100 µM (inactive) | – | > 100 µM (inactive) | > 100 µM (inactive) | > 100 µM (inactive) | > 100 µM (inactive) | > 100 µM (inactive) | > 100 µM (inactive) | > 100 µM (inactive) | > 100 µM (inactive) | > 100 µM (inactive) | > 100 µM (inactive) | 10.5 µM (inactive) | – |
